Data set [1] can be described thus: Metabolic stability in human serum assessed as compound remaining at 3 mM after 24 hrs by HPLC analysis. The format is ADME, cell-free. Particulars: read-out: Stability.
Data set [2] is described as follows: Metabolic stability in human serum assessed as compound remaining at 3 mM after 72 hrs by HPLC analysis. Particulars: read-out: Stability. The format is ADME, cell-free.

Structures are written as SMILES.

In the case of `CC(C)C[C@H](NC(=O)[C@H](CC(=O)O)NC(=O)[C@H](CCC(=O)O)NC(=O)[C@@H](NC(=O)[C@H](CC(C)C)NC(=O)[C@H](CCC(=O)O)NC(=O)C(C)(C)NC(=O)[C@H](Cc1c[nH]c2ccccc12)NC(=O)[C@@H](NC(=O)[C@@H](N)CC(=O)O)[C@@H](C)O)C(C)C)C(=O)N[C@@H](CC(N)=O)C(=O)NCC(=O)NCC(=O)NCC(=O)N[C@@H](CO)C(=O)N[C@@H](Cc1ccc(Br)cc1)C(=O)N[C@@H](CCCNC(=N)N)C(N)=O`, the remaining at 24 h, 3000 µM in data set [1] came to 24%. Take `CC(C)C[C@@H](NC(=O)[C@@H](CC(=O)O)NC(=O)[C@@H](CCC(=O)O)NC(=O)[C@H](NC(=O)[C@@H](CC(C)C)NC(=O)[C@@H](CCC(=O)O)NC(=O)C(C)(C)NC(=O)[C@@H](Cc1c[nH]c2ccccc12)NC(=O)[C@H](NC(=O)[C@H](N)CC(=O)O)[C@@H](C)O)C(C)C)C(=O)N[C@H](CC(N)=O)C(=O)NCC(=O)NCC(=O)NCC(=O)N[C@@H](CO)C(=O)N[C@@H](Cc1ccc(Br)cc1)C(=O)N[C@@H](CCCNC(=N)N)C(N)=O`: in data set [1], the remaining at 24 h, 3000 µM is 62%. Further, the remaining at 72 h, 3000 µM in data set [2] amounted to 36%.

Values taken from ChEMBL document CHEMBL4184127, “Isolation of a peptide containing d-amino acid residues that inhibits the α-helix-mediated p53-MDM2 interaction from a one-bead one-compound library” (Bioorg Med Chem Lett, 2018).
